# According to patent US5534498A, “Trypsin inhibitors” (Corvas International, Inc., priority 1993, dated 1996):
# Residues, ends and D or L forms follow the SMILES beside them. *: point of attachment. Boc = CC(C)(C)OC(=O)*
# What was measured:
# [1] = tested on: caerulein-induced pancreatitis in balb/c mice; experiment: Animal model for pancreatitis: caerulein-induced pancreatitis, serum amylase; type: in vivo; details: caerulein 3 × 100 μg/kg IP, inhibitor 50 mg/kg IP, blood 4 hours after last inhibitor injection, saline + caerulein 64.4 ± 14.4, control 10.4 ± 1.6
# Protocol: The efficacy of the compounds of the present invention as a prophylactic treatment for pancreatitis is assessed in vivo using the chemically-induced animal model of Niederau et al., Gastroenterology 88:1192-1204 (1985).
# Pancreatitis was induced in fasting male balb/c mice weighing between 18 to 20 g by giving them three IP injections of caerulein, with each dose at 100 μg/kg body weight. The injections of each were given at two hour intervals over a 6 hour period. The ability of N-Boc-L-Asp-Pro-Arg-al (compound 9) to inhibit the induced pancreatitis was tested by injection into caerulein-treated mice. The inhibitor was dissolved into TBS, then injected IP into the mice. The first injection was given 1/4 hour prior to the caerulein treatment, then one hour after each caerulein injection. Inhibitor dose tested was 50 mg/kg body weight.
# A blood serum sample was drawn and tested for amylase concentration. The blood sample was obtained by periorbital bleeding into heparized tubes 4 hours after the last injection of inhibitor. After centrifuging to remove the blood cells, the serum was the diluted 1:10 in TBS and assayed with Sigma Diagnostics Amylase reagent. The kinetic change in absorbance was measured at 405 nm for 1 minute, then was convereted into U/ml amylase activity.
# [2] = target: T1, Activated human Protein C (Homo sapiens, UniProt P04070); experiment: Protein C assay (Pefachrome PC substrate); type: biochemical
# T1 construct: from tissue
# Protocol: (§1) The specificity of the peptide aldehydes (8 through 12) was determined in vitro by measurement of their IC50 against other enzymes involved in hemostasis. A specific concentration of enzyme and its substrate were challenged with varying concentrations of inhibitor. […] Specific assay procedures used are presented below.
# (§2) 96-well microtiter plates were prepared for use in these assays by incubating each well with 300 μL 1% bovine serum albumin (in deionized water) for 30 minutes at 37° C., then washing three times with deionized water.
# Enzyme activity was determined using as substrate, Pefachrome PC [δ-carbobenzoloxy-D-lysyl-L-prolyl-L-arginine-p-nitroanilide], purchased from Centerchem, Inc. The substrate was made up in deionized water prior to use. Protac used to activate Protein C was obtained from American Diagnostics.
# [3] = target: T2, human Factor Xa (Homo sapiens, UniProt P00742); experiment: Factor Xa assay (Pefachrome Xa substrate); type: biochemical
# T2 construct: 50 μL 30 nM human Factor Xa
# Protocol: as §1, §2
# Enzyme activity was determined using as substrate, Pefachrome Xa [N-methoxycarbonyl-D-cyclohexylalanyl-L-glycyl-L-arginine p-niroanilide acetate], purchased from Centerchem, Inc. The substrate was made up in deionized water prior to use.
# [4] = target: T3, bovine trypsin (Bos taurus, UniProt P00760); experiment: Trypsin assay, IC50 (S-2222 substrate); type: biochemical
# T3 sequence (P00760 24-246): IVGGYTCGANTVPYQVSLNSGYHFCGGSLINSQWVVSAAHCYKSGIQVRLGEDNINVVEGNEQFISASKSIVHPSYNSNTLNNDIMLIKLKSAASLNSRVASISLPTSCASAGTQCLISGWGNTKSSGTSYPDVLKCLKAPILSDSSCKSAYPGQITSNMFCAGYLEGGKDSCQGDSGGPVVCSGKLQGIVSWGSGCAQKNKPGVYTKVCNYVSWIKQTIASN
# Protocol: as §1, §2
# The substrate was made up in deionized water prior to use.
# [5] = 30 min preincubation, room temperature, tested 0.025-25 μM, Inact. = no inhibition at highest concentration
# [6] = [IC50 for Trypsin/IC50 for other enzyme]×100, lower = more trypsin selective
# T1 sequence (P04070 212-461 limits assumed): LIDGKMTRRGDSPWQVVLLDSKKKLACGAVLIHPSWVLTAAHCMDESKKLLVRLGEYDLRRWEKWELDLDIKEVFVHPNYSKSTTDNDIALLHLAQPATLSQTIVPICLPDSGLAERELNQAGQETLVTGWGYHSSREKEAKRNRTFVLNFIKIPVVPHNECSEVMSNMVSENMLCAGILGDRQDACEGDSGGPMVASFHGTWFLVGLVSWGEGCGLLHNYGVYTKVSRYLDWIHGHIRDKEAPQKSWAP
# T1 sequence (P04070 43-197 partner limits assumed): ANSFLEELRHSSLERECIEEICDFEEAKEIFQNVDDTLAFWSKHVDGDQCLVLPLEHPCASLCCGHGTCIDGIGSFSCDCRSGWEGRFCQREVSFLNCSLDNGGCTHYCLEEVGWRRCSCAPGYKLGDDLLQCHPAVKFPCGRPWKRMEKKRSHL
# T2 sequence (P00742 235-488 limits assumed): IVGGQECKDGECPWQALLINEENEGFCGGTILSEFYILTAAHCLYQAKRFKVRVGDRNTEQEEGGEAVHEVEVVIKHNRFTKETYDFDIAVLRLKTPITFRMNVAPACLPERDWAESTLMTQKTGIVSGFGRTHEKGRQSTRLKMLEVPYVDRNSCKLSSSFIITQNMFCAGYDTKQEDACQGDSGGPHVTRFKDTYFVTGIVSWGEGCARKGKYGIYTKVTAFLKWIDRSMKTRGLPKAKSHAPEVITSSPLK
# T2 sequence (P00742 41-179 partner limits assumed): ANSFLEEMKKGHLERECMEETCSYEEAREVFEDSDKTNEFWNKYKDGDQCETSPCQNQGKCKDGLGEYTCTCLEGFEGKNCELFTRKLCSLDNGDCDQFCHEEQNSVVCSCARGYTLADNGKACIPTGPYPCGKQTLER
smiles,measurement,setting,value
"CC(C)(C)OC(=O)N[C@@H](CC(=O)O)C(=O)N1CCC[C@H]1C(=O)N[C@H](C=O)CCCNC(=N)N [Compound 9, N-t-butyloxycarbonyl-L-Asp-L-Pro-L-argininal] (Boc-Asp-Pro-Arg-aldehyde)","Amylase Activity, Mean ± S.D",[1],40.8 ± 5.2 U/ml
same,IC50 Protein C,[2]; [5],Inact.
same,Calculated % Selectivity Protein C,[2]; [6],0%
same,IC50,[3]; [5],> 25000 nM
same,Calculated % Selectivity Xa,[3]; [6],< 0.06%
same,IC50,"[4]; 30 min preincubation, room temperature, tested 0.025-25 μM",14 nM
same,Calculated % Selectivity Trypsin,"[4]; trypsin relative to itself (reference, 100 by definition)",100%
